The target of this test is B56 (Homo sapiens, UniProt Q13362). Briefly: Isothermal titration calorimetry. Format: binding. The conditions noted are these: ITC.

For the substance KLpSPIIED, the “reduction of binding to B56 on removing residue 676 altogether” value (668KLpSPIIED675 compared with the 668-676 peptides) is listed as ~ 1.7 fold.

KLpSPIIEDE: the “increase of binding affinity for B56 as the salt concentration is reduced” value (salt concentration 300 mM to 150 mM) was ~ 3.6 fold.

The values are drawn from publication PMC5180209 (Structure (London, England : 1993), 2016).
